Data set [1] in a line: Literature concentrations detected in post-mortem cases. The settings on record: conversion of cited ng/mL value.
Data set [2] deals with T1, hERG S649A (Homo sapiens, UniProt Q12809, S649A).
T1 construct: expressed in transfected cells; host or cells: CHO-K1 CCL-61 (ATCC), transient, co-transfected with pcDNA3-GFP
In words: Manual patch-clamp (MPC) on hERG S649A, transiently transfected CHO-K1 cells. It is filed as cell-based. The source says: (§1) The hERG wild-type and Y652A constructs were kindly provided by Dr. Nicole Schmitt, and the eGFP-pcDNA3 construct was kindly provided by Dr. Antonios Pantazis. The S624A and S649A constructs were generated in-house from the wild-type template using the QuikChange II XL Site-Directed Mutagenesis Kit (Agilent Technologies, Santa Clara, CA, USA), in accordance with the manufacturer’s instructions. Mutagenesis primers were designed using the Agilent QuikChange Primer Design Program. Briefly, PCR amplification was performed according to the recommended cycling conditions, followed by DpnI digestion for 1 h to selectively degrade the parental (methylated) DNA template. The reaction products were then transformed into XL10-Gold ultracompetent cells. All constructs were verified by whole-plasmid sequencing (Eurofins Genomics, Germany) to confirm sequence accuracy.
(§2) Manual patch-clamp (MPC) recordings were performed 24–48 h post-transfection. Patch pipettes were pulled from borosilicate glass and had resistances of 4–7 MΩ when filled with intracellular solution. Coverslips with CHO-K1 cells were placed in a recording chamber and continuously perfused at room temperature (22–24 °C) with extracellular solution using a gravity-fed perfusion system. […] Compounds were applied to the recorded cells by a pressurized, automated OctaFlow perfusion system (ALA Scientific Instruments). […]
A general note: The patch-clamp technique gives a direct electrical read-out from membranes.

For data set [3] the following is noted: cited from earlier work.
Data set [4] deals with T2, hERG Y652A (Homo sapiens, UniProt Q12809, Y652A).
T2 construct: expressed in transfected cells; host or cells: CHO-K1 CCL-61 (ATCC), transient, co-transfected with pcDNA3-GFP
T2 sequence (Q12809 whole entry Y652A): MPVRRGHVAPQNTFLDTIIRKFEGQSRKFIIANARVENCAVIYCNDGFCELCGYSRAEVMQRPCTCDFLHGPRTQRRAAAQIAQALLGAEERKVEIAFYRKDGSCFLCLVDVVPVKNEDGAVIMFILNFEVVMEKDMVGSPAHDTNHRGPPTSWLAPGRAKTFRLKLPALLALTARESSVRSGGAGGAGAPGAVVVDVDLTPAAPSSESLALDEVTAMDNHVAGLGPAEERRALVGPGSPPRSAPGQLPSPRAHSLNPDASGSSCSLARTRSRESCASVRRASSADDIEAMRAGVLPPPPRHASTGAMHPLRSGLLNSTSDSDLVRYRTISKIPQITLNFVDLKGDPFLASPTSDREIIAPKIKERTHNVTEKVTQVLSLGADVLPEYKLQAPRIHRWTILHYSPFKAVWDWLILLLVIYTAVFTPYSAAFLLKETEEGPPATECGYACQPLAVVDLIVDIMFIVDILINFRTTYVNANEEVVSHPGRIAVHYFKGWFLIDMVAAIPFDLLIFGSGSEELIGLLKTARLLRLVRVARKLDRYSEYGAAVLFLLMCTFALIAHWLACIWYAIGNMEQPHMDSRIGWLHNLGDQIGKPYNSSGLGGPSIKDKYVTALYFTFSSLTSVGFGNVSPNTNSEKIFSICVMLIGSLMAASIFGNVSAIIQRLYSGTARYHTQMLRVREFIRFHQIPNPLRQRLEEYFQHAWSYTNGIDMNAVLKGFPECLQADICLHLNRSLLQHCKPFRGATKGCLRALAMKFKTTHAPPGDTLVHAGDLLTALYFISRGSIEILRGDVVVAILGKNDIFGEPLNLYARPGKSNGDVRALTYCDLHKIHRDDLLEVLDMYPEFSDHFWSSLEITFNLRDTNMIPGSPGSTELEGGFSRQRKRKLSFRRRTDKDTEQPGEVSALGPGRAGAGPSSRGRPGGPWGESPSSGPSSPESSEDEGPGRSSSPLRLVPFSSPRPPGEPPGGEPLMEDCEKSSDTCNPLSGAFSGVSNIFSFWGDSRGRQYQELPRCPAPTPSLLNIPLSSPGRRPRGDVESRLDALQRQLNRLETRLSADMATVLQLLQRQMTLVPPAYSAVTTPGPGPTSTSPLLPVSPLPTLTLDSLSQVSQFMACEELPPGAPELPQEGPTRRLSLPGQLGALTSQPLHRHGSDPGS
In words: Manual patch-clamp (MPC) on hERG Y652A, transiently transfected CHO-K1 cells. Type of data set: cell-based.
Text: as §1, §2

For data set [5], the target named is T3, hERG WT (Homo sapiens, UniProt Q12809).
T3 construct: expressed in transfected cells
T3 sequence (Q12809 whole entry): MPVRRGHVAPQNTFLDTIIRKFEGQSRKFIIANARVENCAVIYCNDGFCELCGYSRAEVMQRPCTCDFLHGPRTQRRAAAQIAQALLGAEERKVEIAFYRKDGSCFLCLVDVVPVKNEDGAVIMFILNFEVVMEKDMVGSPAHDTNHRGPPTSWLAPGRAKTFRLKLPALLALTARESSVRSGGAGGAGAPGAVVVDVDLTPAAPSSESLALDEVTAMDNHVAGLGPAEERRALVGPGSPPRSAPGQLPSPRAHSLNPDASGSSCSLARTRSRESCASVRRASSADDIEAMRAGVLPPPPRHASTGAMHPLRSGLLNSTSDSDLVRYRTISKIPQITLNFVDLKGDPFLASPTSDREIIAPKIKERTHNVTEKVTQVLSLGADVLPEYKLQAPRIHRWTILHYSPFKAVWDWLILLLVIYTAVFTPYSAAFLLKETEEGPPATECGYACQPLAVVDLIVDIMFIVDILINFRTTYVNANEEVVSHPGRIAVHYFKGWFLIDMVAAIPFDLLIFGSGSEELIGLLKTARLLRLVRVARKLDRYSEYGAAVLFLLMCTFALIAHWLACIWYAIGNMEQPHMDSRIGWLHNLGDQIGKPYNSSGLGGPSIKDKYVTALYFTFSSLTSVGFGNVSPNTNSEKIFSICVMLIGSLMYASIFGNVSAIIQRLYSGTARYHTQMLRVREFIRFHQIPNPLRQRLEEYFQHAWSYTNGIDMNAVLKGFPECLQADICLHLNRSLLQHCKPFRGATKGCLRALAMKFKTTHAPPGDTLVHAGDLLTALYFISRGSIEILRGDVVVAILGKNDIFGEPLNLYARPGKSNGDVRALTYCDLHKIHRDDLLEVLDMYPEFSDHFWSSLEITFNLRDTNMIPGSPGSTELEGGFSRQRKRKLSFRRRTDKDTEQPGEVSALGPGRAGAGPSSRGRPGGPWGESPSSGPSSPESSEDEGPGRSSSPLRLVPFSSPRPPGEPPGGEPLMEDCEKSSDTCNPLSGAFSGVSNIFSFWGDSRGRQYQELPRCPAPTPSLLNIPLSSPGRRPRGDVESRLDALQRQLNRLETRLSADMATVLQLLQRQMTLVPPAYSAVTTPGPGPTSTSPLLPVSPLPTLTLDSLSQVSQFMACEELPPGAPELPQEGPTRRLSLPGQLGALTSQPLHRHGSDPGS
In words: Manual patch-clamp (MPC) on hERG wild type. It is filed as cell-based. As to the method:
Manual patch-clamp (MPC) recordings were performed 24–48 h post-transfection. Patch pipettes were pulled from borosilicate glass and had resistances of 4–7 MΩ when filled with intracellular solution. Coverslips with CHO-K1 cells were placed in a recording chamber and continuously perfused at room temperature (22–24 °C) with extracellular solution using a gravity-fed perfusion system. The intracellular and extracellular solutions used for MPC were identical to those used for APC electrophysiology (see above). Extracellular solution without DMSO was used as a vehicle. Compounds were diluted from the stock solution as a series of dilutions in extracellular solution (i.e., no compensation for different concentrations of DMSO in recording solutions). Compounds were applied to the recorded cells by a pressurized, automated OctaFlow perfusion system (ALA Scientific Instruments).
Each voltage protocol was first run three times in extracellular solution, the 3rd serving as the baseline. Voltage protocols were repeated in the presence of cumulatively rising concentrations of test compound; each concentration was present for 30 s before the recording started. The signals were sampled at 5 kHz after low-pass filtering at 2 kHz.
For Gmax (rel.), N was set to –1. For ΔV50, N was set to 1.

In data set [6] the target is T4, human CB1 receptor (Homo sapiens, UniProt P21554).
T4 construct: host or cells: CHO-K1 stably expressing CB1, apoaequorin and Gα16
T4 sequence (P21554 whole entry): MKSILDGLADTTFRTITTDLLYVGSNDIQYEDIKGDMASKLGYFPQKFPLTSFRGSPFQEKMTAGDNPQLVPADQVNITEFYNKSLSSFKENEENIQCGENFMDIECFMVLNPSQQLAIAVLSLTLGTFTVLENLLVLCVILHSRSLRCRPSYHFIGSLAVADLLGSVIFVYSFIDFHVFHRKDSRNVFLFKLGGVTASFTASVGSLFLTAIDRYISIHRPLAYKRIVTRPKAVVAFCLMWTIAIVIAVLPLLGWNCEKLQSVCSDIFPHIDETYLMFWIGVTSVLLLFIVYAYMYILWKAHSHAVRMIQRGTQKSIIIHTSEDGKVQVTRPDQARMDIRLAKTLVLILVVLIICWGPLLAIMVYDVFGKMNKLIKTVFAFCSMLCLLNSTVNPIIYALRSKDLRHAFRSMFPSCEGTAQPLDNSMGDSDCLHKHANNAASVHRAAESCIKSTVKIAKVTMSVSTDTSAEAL
In words: AequoScreen intracellular calcium release assay, CHO-K1 cells stably expressing CB1. Type of data set: cell-based. The settings on record: n ≥ 3 (JWH-030 n = 2). Background: Calcium assays in cells follow changes in intracellular calcium, usually with a dye or a luminescent sensor.

In data set [7] the target is T5, hERG S624A (Homo sapiens, UniProt Q12809, S624A).
T5 construct: expressed in transfected cells; host or cells: CHO-K1 CCL-61 (ATCC), transient, co-transfected with pcDNA3-GFP
T5 sequence (Q12809 whole entry S624A): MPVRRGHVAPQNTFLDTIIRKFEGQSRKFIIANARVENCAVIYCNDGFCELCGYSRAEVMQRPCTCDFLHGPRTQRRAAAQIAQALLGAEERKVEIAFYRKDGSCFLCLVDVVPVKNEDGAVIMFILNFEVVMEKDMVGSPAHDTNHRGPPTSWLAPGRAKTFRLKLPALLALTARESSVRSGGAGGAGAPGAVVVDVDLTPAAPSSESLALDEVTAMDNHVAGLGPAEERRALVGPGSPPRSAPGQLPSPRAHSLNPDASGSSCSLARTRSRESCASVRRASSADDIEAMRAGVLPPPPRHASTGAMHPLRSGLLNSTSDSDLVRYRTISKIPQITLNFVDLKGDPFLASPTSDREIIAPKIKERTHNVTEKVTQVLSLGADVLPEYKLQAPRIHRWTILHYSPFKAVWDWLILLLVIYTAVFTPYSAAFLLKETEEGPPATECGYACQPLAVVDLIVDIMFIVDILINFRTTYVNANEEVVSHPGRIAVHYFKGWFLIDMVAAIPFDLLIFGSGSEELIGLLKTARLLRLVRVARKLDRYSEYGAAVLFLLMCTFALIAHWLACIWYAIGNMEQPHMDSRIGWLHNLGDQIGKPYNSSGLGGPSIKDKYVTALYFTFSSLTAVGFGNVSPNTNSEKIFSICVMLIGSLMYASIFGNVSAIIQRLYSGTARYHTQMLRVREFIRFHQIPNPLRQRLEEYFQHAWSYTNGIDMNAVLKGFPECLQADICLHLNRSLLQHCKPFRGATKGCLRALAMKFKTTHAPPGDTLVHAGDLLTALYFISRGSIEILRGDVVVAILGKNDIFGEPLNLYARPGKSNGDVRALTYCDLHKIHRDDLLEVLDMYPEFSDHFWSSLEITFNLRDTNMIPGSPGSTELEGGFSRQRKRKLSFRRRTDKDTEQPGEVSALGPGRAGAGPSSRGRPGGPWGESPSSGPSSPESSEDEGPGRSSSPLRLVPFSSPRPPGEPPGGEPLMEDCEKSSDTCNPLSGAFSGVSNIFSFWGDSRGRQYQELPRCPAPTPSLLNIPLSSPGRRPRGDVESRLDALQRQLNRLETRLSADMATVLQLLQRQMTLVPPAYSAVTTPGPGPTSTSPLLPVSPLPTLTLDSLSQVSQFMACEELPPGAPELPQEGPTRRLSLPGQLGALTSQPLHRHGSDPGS
Put plainly: Manual patch-clamp (MPC) on hERG S624A, transiently transfected CHO-K1 cells. It is filed as cell-based.
Text: as §1, §2

pEC50, pIC50: −log10 of the molar value.

Data on one compound can be found in paper PMC13586173, “Synthetic cannabinoid receptor agonists inhibit the cardiac voltage-gated potassium channel hERG” (Acta Pharmacologica Sinica, 2026).

T1 sequence (Q12809 whole entry S649A): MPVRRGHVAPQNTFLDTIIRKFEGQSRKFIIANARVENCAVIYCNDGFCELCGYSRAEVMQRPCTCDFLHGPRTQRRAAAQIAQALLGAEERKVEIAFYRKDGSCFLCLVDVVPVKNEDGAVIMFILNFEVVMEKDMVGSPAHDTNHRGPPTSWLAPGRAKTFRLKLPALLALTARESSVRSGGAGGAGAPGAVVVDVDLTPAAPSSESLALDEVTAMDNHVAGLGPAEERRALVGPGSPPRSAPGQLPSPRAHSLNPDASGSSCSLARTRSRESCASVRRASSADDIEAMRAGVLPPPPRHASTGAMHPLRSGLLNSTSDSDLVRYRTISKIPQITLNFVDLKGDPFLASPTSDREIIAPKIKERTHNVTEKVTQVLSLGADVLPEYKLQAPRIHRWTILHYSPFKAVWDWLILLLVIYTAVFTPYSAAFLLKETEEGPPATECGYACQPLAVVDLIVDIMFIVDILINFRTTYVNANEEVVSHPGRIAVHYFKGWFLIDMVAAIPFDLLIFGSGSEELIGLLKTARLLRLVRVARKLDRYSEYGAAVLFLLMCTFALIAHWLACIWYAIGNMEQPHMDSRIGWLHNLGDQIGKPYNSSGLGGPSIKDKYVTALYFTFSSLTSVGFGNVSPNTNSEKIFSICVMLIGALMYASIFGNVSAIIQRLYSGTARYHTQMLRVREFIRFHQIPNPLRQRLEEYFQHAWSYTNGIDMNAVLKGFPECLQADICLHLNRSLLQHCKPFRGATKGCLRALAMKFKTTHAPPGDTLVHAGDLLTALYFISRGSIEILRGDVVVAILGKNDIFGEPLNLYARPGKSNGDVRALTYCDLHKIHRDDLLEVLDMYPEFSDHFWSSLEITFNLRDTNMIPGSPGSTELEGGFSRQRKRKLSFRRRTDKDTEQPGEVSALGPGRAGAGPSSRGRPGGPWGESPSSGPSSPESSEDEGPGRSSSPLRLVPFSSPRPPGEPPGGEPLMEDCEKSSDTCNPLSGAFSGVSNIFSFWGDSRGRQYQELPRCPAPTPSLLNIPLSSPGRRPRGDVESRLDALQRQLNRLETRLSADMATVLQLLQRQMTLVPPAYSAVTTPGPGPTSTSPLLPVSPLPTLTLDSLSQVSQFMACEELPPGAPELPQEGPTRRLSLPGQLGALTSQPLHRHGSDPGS

For the compound `COC(=O)C(NC(=O)c1nn(CCCCCF)c2ccccc12)C(C)(C)C` (stereo not shown) [5F-MDMB-PINACA, methyl 2-{[1-(5-fluoropentyl)-1H-indazole-3-carbonyl]amino}-3,3-dimethylbutanoate], the “concentration in post-mortem cases, blood or serum (converted)” value in data set [1] (blood or serum samples) was “≈ 5.3 nM”. Moreover, the “concentration in post-mortem case, heart muscle (converted)” value in data set [1] (heart muscle) is listed as “≈ 4.8 nM”. In addition, the pIC50 (in general, −log10 of the IC50, conventionally taken in molar units) was 4.78 in data set [2], 5.11 in data set [4], 5.40 in data set [5] and 5.02 in data set [7]. Moreover, the “concentration in post-mortem cases, blood or serum” value in data set [3] (blood or serum samples) is recorded as “approximately 2 ng/mL”. In data set [3] (heart muscle), the “concentration in post-mortem case, heart muscle” value is 1.82 ng/mL. In data set [6] (CB1 receptor Potency EC50, normalized to median EC50 of JWH-018), the pEC50 (as a rule, the negative decadic logarithm of the EC50, by convention in mol/L) was 8.05. In addition, the “CB1 receptor Efficacy Emax” value in data set [6] (normalized to maximum of JWH-018) was 131 % JWH-018.
